What was measured:
Type in all cases: cell-based
[1] = test system: E. coli DH5α; test: Antibacterial activity: MIC and growth curve against E. coli DH5α in 96-well plate; conditions: minimal inhibitory concentration against E. coli DH5α; 96-well plate, 5×10^5 CFU/mL, 37° C., judged after 8 h
In short: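 Log-phase DH5α (OD600 about 0.5, 37° C, 185 rpm in LB) was pelleted, resuspended in fresh LB and seeded at 5×10^5 CFU/mL with recombinant protein at 50, 25 and 12.5 μg/mL (two-fold series), in triplicate. Plates were shaken at 175 rpm, 37° C, and OD600 was read every 30 min. MIC was the lowest concentration with no growth.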

[2] = test system: Proteus mirabilis; test: MIC against Gram-negative bacteria: Proteus mirabilis
In short: (§1)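 The recombinant human-originated EGF domain proteins were serially diluted two-fold against bacteria at 5×10^5 CFU/mL in LB medium. After shaken incubation at 37° C, the lowest concentration with no bacterial growth was recorded as the MIC.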

[3] = test system: Proteus vulgaris; test: MIC against Gram-negative bacteria: Proteus vulgaris
In short: as §1

[4] = test system: Aeromonas hydrophila; test: MIC against Gram-negative bacteria: Aeromonas hydrophila
In short: as §1

[5] = test system: Enterobacter cloacae; test: MIC against Gram-negative bacteria: Enterobacter cloacae
In short: as §1

[6] = test system: Pseudomonas aeruginosa; test: MIC against Gram-negative bacteria: Pseudomonas aeruginosa
In short: as §1

[7] = test system: Citrobacter diversus; test: MIC against Gram-negative bacteria: Citrobacter diversus
In short: as §1

[8] = test system: Serratia marcescens; test: MIC against Gram-negative bacteria: Serratia marcescens
In short: as §1

[9] = test system: E. coli BL21; test: MIC against Gram-negative bacteria: E. coli BL21; conditions: E. coli BL21
In short: as §1

[10] = test system: Klebsiella pneumonia; test: MIC against Gram-negative bacteria: Klebsiella pneumonia
In short: as §1

[11] = test system: Moraxella catarrhalis; test: MIC against Gram-negative bacteria: Moraxella catarrhalis
In short: as §1

[12] = P. mirabilis, 10 h cultivation at 37° C., 5×10^5 CFU/mL
[13] = P. vulgaris, 10 h cultivation at 37° C., 5×10^5 CFU/mL
[14] = A. hydrophila, 10 h cultivation at 37° C., 5×10^5 CFU/mL
[15] = E. cloacae, 10 h cultivation at 37° C., 5×10^5 CFU/mL
[16] = P. aeruginosa, 10 h cultivation at 37° C., 5×10^5 CFU/mL
[17] = C. diversus, 10 h cultivation at 37° C., 5×10^5 CFU/mL
[18] = S. marcescens, 10 h cultivation at 37° C., 5×10^5 CFU/mL
[19] = 10 h cultivation at 37° C., 5×10^5 CFU/mL
[20] = K. pneumonia, 10 h cultivation at 37° C., 5×10^5 CFU/mL
[21] = M. catarrhalis, 10 h cultivation at 37° C., 5×10^5 CFU/mL
[22] = Proteus mirabilis, 96-well plate, 5×10^5 CFU/mL, 37° C., 10 h
[23] = Proteus vulgaris, 96-well plate, 5×10^5 CFU/mL, 37° C., 10 h
[24] = Aeromonas hydrophila, 96-well plate, 5×10^5 CFU/mL, 37° C., 10 h
[25] = Enterobacter cloacae, 96-well plate, 5×10^5 CFU/mL, 37° C., 10 h
[26] = Pseudomonas aeruginosa, 96-well plate, 5×10^5 CFU/mL, 37° C., 10 h
[27] = Citrobacter diversus, 96-well plate, 5×10^5 CFU/mL, 37° C., 10 h
[28] = Serratia marcescens, 96-well plate, 5×10^5 CFU/mL, 37° C., 10 h
[29] = 96-well plate, 5×10^5 CFU/mL, 37° C., 10 h
[30] = Klebsiella pneumonia, 96-well plate, 5×10^5 CFU/mL, 37° C., 10 h
[31] = Moraxella catarrhalis, 96-well plate, 5×10^5 CFU/mL, 37° C., 10 h

PRT185 (ELSECDSNPCRNGGSCKDQEDGYHCLCPPGYYGLHCE; listed as Homo sapiens)
12.5 µg/mL: MIC (μg/mL) P. mirabilis [2, 12] | MIC (μg/mL) P. vulgaris [3, 13] | MIC (μg/mL) P. aeruginosa [6, 16] | MIC (μg/mL) C. diversus [7, 17]
25 µg/mL: MIC (μg/mL) A. hydrophila [4, 14] | MIC (μg/mL) E. coli BL21 [9, 19] | MIC (μg/mL) K. pneumonia [10, 20]
50 µg/mL: MIC [1] | MIC (μg/mL) E. cloacae [5, 15] | MIC (μg/mL) S. marcescens [8, 18] | MIC (μg/mL) M. catarrhalis [11, 21]

PRT1328 (LINVCLTKNGGCSEFAICNHTGQVERTCTCKPNYIGDGFT; listed as Homo sapiens)
25 µg/mL: MIC against A. hydrophila [4, 24] | MIC against M. catarrhalis [11, 31]
50 µg/mL: MIC against P. mirabilis [2, 22] | MIC against E. cloacae [5, 25] | MIC against P. aeruginosa [6, 26] | MIC against S. marcescens [8, 28]
12.5 µg/mL: MIC [1] | MIC against P. vulgaris [3, 23] | MIC against C. diversus [7, 27] | MIC against E. coli BL21 [9, 29] | MIC against K. pneumonia [10, 30]

PRT795 (WGFGCNLTCQCLNGGACNTLDGTCTCAPGWRGEKCE; listed as Homo sapiens)
12.5 µg/mL: MIC (μg/mL) E. cloacae [5, 15]
25 µg/mL: MIC (μg/mL) P. mirabilis [2, 12] | MIC (μg/mL) P. vulgaris [3, 13] | MIC (μg/mL) A. hydrophila [4, 14] | MIC (μg/mL) E. coli BL21 [9, 19] | MIC (μg/mL) M. catarrhalis [11, 21]
50 µg/mL: MIC [1] | MIC (μg/mL) P. aeruginosa [6, 16] | MIC (μg/mL) C. diversus [7, 17] | MIC (μg/mL) S. marcescens [8, 18] | MIC (μg/mL) K. pneumonia [10, 20]

PRT915 (ASSPCLGGNPCYNQGTCEPTSESPFYRCLCPAKFNGLLCH; listed as Homo sapiens)
25 µg/mL: MIC [1] | MIC ([2]; P. mirabilis, 10 h cultivation at 37° C.) | MIC ([3]; P. vulgaris, 10 h cultivation at 37° C.) | MIC ([4]; A. hydrophila, 10 h cultivation at 37° C.) | MIC ([7]; C. diversus, 10 h cultivation at 37° C.) | MIC ([8]; S. marcescens, 10 h cultivation at 37° C.) | MIC ([9]; 10 h cultivation at 37° C.) | MIC ([10]; K. pneumonia, 10 h cultivation at 37° C.)
12.5 µg/mL: MIC ([5]; E. cloacae, 10 h cultivation at 37° C.)
50 µg/mL: MIC ([6]; P. aeruginosa, 10 h cultivation at 37° C.) | MIC ([11]; M. catarrhalis, 10 h cultivation at 37° C.)

PRT243 (DVNECGMKPRPCQHRCVNTHGSYKCFCLSGHMLMPDATCV; listed as Homo sapiens)
12.5 µg/mL: MIC [1] | MIC (μg/mL) P. mirabilis [2, 12] | MIC (μg/mL) E. cloacae [5, 15] | MIC (μg/mL) P. aeruginosa [6, 16] | MIC (μg/mL) C. diversus [7, 17] | MIC (μg/mL) S. marcescens [8, 18] | MIC (μg/mL) E. coli BL21 [9, 19] | MIC (μg/mL) K. pneumonia [10, 20]
25 µg/mL: MIC (μg/mL) P. vulgaris [3, 13] | MIC (μg/mL) A. hydrophila [4, 14] | MIC (μg/mL) M. catarrhalis [11, 21]

PRT42 (CQCNGHSKCINQSICEKCENLTTGKHCETCISGFYGDPTNGGKCQP; listed as Homo sapiens)
100 µg/mL: MIC (μg/mL) P. vulgaris [3, 23]
50 µg/mL: MIC (μg/mL) S. marcescens [8, 28]
12.5 µg/mL: MIC (μg/mL) A. hydrophila [4, 24] | MIC (μg/mL) E. coli BL21 [9, 29] | MIC (μg/mL) K. pneumonia [10, 30] | MIC (μg/mL) M. catarrhalis [11, 31]
25 µg/mL: MIC [1] | MIC (μg/mL) P. mirabilis [2, 22] | MIC (μg/mL) E. cloacae [5, 25] | MIC (μg/mL) P. aeruginosa [6, 26] | MIC (μg/mL) C. diversus [7, 27]

PRT854 (TCSMANCQYGCDVVKGQIRCQCPSPGLQLAPDGRTCV; listed as Homo sapiens)
12.5 µg/mL: MIC [1] | MIC (μg/mL) P. mirabilis [2, 12] | MIC (μg/mL) A. hydrophila [4, 14] | MIC (μg/mL) E. cloacae [5, 15] | MIC (μg/mL) C. diversus [7, 17] | MIC (μg/mL) S. marcescens [8, 18] | MIC (μg/mL) E. coli BL21 [9, 19] | MIC (μg/mL) K. pneumonia [10, 20]
100 µg/mL: MIC (μg/mL) P. aeruginosa [6, 16]
50 µg/mL: MIC (μg/mL) P. vulgaris [3, 13] | MIC (μg/mL) M. catarrhalis [11, 21]

Reference: patent US9833497B2, “Human originated EGF domain proteins and use of the same” (CHENGDU SOURCEBIO LIMITED-LIABILITY COMPANY, priority 2013, dated 2017)
